Measurements reported in ChEMBL document CHEMBL5291721, “A preclinical secondary pharmacology resource illuminates target-adverse drug reaction associations of marketed drugs” (Nat Commun, 2023).

Assays:
[1] = biological target: Adenosine receptor A2a (Homo sapiens, UniProt P29274)
[2] = biological target: Beta-1 adrenergic receptor (Homo sapiens, UniProt P08588); type: functional
[3] = biological target: Beta-2 adrenergic receptor (Homo sapiens, UniProt P07550)
[4] = biological target: T1, Muscarinic acetylcholine receptor M2 (Homo sapiens, UniProt P08172); type: functional, cell-based
T1 sequence (P08172 whole entry): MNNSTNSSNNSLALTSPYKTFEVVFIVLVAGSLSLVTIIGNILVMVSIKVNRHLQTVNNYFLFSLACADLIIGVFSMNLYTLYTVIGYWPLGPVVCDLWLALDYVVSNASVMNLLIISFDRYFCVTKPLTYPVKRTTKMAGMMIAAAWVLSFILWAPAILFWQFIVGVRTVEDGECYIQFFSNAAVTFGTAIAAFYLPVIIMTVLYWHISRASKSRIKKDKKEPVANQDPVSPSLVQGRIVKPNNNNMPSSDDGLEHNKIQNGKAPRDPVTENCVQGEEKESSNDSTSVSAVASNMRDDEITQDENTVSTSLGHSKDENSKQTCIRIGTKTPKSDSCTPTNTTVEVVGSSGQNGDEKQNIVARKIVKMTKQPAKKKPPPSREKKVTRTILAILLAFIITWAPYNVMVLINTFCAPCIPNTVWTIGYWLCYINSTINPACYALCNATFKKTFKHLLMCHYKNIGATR

[5] = biological target: Muscarinic acetylcholine receptor M3 (Homo sapiens, UniProt P20309)
Chain of Muscarinic acetylcholine receptor M3 (P20309 whole entry): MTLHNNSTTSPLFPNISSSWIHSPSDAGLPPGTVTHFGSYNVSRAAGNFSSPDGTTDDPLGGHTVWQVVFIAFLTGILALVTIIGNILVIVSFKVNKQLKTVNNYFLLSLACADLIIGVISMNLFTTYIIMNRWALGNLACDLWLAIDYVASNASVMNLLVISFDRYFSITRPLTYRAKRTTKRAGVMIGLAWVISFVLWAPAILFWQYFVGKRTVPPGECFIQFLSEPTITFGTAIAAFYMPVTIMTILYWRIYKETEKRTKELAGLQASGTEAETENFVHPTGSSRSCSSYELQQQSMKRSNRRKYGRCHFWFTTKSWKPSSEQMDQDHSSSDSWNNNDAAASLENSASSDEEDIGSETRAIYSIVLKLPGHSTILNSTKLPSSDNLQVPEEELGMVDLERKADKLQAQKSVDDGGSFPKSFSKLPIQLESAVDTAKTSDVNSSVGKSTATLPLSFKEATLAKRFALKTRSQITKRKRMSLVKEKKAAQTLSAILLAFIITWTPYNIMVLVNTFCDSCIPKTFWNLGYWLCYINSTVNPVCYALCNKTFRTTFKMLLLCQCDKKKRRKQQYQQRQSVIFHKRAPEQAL

[6] = biological target: Neuronal acetylcholine receptor subunit alpha-4 (Homo sapiens, UniProt P43681)
Chain of Neuronal acetylcholine receptor subunit alpha-4 (P43681 whole entry): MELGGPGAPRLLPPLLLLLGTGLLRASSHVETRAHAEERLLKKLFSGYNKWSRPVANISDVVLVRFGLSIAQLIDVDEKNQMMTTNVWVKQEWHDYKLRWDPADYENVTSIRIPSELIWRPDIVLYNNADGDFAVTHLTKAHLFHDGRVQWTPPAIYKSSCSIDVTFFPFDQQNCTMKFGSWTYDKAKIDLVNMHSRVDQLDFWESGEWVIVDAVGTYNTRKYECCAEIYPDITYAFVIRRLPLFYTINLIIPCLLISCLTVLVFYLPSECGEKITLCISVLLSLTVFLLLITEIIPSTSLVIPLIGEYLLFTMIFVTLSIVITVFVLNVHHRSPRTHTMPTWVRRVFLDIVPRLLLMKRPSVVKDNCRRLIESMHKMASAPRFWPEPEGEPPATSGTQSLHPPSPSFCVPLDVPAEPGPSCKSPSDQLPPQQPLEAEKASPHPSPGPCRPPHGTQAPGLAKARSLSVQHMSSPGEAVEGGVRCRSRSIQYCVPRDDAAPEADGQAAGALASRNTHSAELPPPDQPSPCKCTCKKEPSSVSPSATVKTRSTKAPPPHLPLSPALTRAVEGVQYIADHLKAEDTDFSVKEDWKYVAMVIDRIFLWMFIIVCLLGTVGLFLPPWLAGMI

[7] = biological target: Cannabinoid receptor 1 (Homo sapiens, UniProt P21554); type: functional, cell-based
Chain of Cannabinoid receptor 1 (P21554 whole entry): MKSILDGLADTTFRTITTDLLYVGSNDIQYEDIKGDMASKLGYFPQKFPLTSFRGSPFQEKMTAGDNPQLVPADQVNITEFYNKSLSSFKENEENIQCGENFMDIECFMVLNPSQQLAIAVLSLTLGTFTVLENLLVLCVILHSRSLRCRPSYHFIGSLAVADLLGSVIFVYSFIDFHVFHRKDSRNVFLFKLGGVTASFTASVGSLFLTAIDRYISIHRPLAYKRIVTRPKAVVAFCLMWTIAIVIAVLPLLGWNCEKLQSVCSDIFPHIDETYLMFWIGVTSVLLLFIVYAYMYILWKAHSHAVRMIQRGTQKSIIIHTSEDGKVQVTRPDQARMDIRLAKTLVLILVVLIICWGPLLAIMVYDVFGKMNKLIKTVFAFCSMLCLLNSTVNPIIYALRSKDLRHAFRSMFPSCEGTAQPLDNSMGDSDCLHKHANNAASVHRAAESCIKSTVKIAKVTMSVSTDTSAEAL

[8] = biological target: T2, 5-hydroxytryptamine receptor 1A (Homo sapiens, UniProt P08908); type: functional, cell-based
T2 sequence (P08908 whole entry): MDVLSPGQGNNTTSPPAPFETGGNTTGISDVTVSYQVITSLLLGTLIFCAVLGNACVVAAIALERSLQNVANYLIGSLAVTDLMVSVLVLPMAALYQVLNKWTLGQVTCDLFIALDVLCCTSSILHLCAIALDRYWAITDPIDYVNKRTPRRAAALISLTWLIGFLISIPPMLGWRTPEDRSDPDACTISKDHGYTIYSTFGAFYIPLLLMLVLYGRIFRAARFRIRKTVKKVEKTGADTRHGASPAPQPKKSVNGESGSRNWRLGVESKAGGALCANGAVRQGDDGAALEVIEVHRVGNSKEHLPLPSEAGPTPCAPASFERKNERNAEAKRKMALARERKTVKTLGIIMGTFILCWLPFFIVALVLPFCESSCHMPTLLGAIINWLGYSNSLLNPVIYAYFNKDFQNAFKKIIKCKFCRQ

[9] = biological target: T3, Progesterone receptor (Homo sapiens, UniProt P06401); type: functional
T3 sequence (P06401 whole entry): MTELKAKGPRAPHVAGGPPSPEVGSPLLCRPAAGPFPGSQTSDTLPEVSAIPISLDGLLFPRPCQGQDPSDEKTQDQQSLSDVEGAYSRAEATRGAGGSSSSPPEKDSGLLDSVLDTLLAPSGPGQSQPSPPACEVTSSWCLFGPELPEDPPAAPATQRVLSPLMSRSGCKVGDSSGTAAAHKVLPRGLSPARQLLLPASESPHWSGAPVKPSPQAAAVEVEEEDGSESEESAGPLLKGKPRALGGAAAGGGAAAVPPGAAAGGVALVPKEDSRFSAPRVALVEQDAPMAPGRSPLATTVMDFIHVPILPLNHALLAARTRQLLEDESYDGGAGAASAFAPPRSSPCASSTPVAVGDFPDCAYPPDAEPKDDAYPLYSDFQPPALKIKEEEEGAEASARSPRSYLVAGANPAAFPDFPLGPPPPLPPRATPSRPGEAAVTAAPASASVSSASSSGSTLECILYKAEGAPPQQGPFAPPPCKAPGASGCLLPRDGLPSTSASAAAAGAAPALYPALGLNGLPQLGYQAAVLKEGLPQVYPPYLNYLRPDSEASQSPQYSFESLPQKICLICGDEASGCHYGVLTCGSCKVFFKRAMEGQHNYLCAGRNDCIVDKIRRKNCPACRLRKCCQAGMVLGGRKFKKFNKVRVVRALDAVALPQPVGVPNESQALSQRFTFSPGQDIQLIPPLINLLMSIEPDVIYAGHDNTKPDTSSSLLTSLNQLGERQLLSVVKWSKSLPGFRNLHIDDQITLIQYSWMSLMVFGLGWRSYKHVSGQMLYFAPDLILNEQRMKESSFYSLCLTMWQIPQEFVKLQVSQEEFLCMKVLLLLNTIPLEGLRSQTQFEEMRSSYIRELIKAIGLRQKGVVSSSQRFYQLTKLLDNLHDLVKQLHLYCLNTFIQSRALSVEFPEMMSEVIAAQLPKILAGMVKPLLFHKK

[10] = biological target: T4, Prostaglandin G/H synthase 1 (Rattus norvegicus, UniProt Q63921); type: functional
T4 sequence (Q63921 whole entry): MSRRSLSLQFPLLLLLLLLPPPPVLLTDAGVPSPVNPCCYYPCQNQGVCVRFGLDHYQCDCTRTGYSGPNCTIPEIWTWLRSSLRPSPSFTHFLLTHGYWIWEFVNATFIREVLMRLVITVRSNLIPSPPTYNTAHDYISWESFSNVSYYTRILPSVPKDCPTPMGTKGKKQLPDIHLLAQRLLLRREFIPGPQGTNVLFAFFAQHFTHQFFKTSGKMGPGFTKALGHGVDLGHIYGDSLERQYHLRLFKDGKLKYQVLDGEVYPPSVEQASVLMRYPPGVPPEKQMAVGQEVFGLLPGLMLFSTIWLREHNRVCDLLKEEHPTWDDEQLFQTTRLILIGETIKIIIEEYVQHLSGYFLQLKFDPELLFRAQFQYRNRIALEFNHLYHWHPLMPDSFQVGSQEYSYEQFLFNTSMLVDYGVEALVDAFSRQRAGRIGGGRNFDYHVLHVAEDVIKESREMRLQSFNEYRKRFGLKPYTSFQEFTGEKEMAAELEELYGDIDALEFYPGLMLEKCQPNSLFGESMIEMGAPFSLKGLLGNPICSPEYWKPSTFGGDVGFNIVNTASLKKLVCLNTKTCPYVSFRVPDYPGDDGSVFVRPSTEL

Measured: AC50
Note: assay procedure not described here.

Chain of Adenosine receptor A2a (P29274 whole entry): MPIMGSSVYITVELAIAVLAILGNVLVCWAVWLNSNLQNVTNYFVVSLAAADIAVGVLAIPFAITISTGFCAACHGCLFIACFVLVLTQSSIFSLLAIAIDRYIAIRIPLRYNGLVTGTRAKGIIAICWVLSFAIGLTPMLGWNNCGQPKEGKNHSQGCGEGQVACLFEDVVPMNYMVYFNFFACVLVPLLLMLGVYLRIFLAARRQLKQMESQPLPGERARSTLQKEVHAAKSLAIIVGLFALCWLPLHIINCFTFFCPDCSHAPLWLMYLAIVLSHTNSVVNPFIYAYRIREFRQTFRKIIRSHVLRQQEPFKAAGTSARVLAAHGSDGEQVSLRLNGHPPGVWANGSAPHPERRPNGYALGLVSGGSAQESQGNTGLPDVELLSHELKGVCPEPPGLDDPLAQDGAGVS
Chain of Beta-2 adrenergic receptor (P07550 whole entry): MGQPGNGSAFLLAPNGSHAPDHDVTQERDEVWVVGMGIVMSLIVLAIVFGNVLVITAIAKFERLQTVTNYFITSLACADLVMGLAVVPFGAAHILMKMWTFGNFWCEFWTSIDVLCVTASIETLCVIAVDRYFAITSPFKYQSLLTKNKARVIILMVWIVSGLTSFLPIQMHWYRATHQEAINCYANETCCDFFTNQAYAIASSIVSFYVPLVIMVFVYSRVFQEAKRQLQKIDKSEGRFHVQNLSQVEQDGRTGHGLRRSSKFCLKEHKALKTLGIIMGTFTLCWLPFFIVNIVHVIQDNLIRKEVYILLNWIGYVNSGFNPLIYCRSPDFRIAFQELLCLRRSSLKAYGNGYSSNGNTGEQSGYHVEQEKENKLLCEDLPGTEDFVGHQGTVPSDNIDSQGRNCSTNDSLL
Chain of Beta-1 adrenergic receptor (P08588 whole entry): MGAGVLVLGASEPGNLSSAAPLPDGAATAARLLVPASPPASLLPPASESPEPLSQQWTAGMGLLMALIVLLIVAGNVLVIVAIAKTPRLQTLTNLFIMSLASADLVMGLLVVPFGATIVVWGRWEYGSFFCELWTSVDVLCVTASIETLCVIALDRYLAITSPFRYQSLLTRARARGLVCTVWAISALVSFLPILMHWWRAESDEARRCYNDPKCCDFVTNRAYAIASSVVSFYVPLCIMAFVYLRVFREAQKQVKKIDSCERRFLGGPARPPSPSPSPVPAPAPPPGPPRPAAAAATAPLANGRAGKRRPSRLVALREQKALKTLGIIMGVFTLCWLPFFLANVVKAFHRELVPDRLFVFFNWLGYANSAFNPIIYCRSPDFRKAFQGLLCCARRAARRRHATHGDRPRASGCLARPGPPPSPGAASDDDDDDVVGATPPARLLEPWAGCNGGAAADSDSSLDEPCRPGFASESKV

CN1c2ccccc2C(NCCCCCCC(=O)O)c2ccc(Cl)cc2S1(=O)=O (configuration not stated) [TIANEPTINE]
> 30 µM: [1] | [2] | [3] | [4] | [5] | [6] | [7] | [8] | [9] | [10]

N=C(N)NCCCCCCC(=O)NC(O)C(=O)NCCCCNCCCN (configuration not stated)
> 30 µM: [1] | [2] | [3] | [4] | [5] | [6] | [7] | [8] | [9] | [10]

CCOC(=O)NNc1ccc(N(CC)CC(C)O)nn1 (configuration not stated) [CADRALAZINE]
> 30 µM: [1] | [2] | [3] | [4] | [5] | [6] | [7] | [9]
0.5 µM: [10]
27 µM: [8]

Cc1ccc(=O)n(-c2ccccc2)c1 [PIRFENIDONE]
> 30 µM: [1] | [2] | [3] | [4] | [5] | [6] | [7] | [8] | [9] | [10]

CCCCCCOC(=O)CCC(=O)CN [HEXAMINOLEVULINATE]
9.4 µM: [10]
> 30 µM: [1] | [2] | [3] | [4] | [5] | [6] | [7] | [8] | [9]

COC(=O)N[C@@H](C)CNc1nccc(-c2cn(C(C)C)nc2-c2cc(Cl)cc(NS(C)(=O)=O)c2F)n1 [ENCORAFENIB]
> 30 µM: [1] | [2] | [3] | [4] | [6] | [8] | [9] | [10]
8.7 µM: [5]

Nc1nc(F)nc2c1ncn2[C@@H]1O[C@H](COP(=O)(O)O)[C@@H](O)[C@@H]1O [FLUDARABINE PHOSPHATE]
> 30 µM: [1] | [2] | [3] | [4] | [5] | [6] | [8] | [9] | [10]

N#Cc1ccccc1-c1cc(-c2ccccn2)cn(-c2ccccc2)c1=O
> 30 µM: [1] | [2] | [3] | [4] | [5] | [6] | [7] | [8] | [9] | [10]

CC(=O)O[C@H]1C[C@@H]2CC[C@@H]3[C@H](CC[C@@]4(C)[C@H]3C[C@H]([N+]3(C)CCCCC3)[C@@H]4OC(C)=O)[C@@]2(C)C[C@@H]1[N+]1(C)CCCCC1 [PANCURONIUM]
> 30 µM: [5]
> 10 µM: [1] | [2] | [3] | [4] | [6] | [8] | [9] | [10]
